Target: T1, γ-secretase (Homo sapiens, UniProt P49768)
T1 construct: 293/EBNA-1 cell strain (Invitrogen) was cultured in 10% FBS (Hyclone)/DMEM (Invitrogen); host or cells: 293/EBNA-1 (HEK293) cells; only the substrate rat EphA7-HA was transfected
Test: Analysis of EphA7 processing in EphA7-transfected 293/EBNA-1 cell strain (Western blotting with anti-HA antibody)
Assay type: cell-based
Design: dose or concentration left out as unconfirmed
Details: HEK293 (293/EBNA-1) cells expressing rat EphA7-HA; Compound E added to culture broth, cultured one day; compared with cells without Compound E
Description: Whether or not EphA7 is a substrate for γ-secretase was evaluated using HEK293 cells expressing a gene encoding EphA7 with an HA tag added to its C-terminus, in the presence of a γ-secretase inhibitor. As the γ-secretase inhibitor, (2S)-2-{[(3,5-difluorophenyl)acetyl]amino}-N-[(3S)-1-methyl-2-oxo-5-phenyl-2,3-dihydro-1H-1,4-benzodiazepin-3-yl]propanamide (hereinafter, sometimes referred to as “Compound E”) (Alexis Biochemicals) was used.
293/EBNA-1 cell strain (Invitrogen) was cultured in 10% FBS (Hyclone)/DMEM (Invitrogen) under 5% CO2 at 37° C., followed by transfection thereinto of the gene encoding rat EphA7 with an HA tag added to its C-terminus using Lipofectamine 2000 (Invitrogen). After one day culture under the same conditions, […] Compound E (γ-secretase inhibitor; Alexis Biochemicals) was added to the culture broth. Cells were cultured for another day under the same conditions. Then, the transfected HEK293 cells were collected with PBS (Sigma) and sonicated with a sonicator (Taitec VP-5S) to disrupt cells. Then, the quantity of protein was determined with Protein Assay Kit (BioRad). […]
First, the substrate for γ-secretase is cut off its extracellular domain by other protease. […] Since reactions proceed very quickly from the first cleavage to the final degradation by proteasome, the substrate is […] when detected by Western blotting.

## C[C@H](NC(=O)Cc1cc(F)cc(F)c1)C(=O)N[C@H]1N=C(c2ccccc2)c2ccccc2N(C)C1=O [Compound E, (2S)-2-{[(3,5-difluorophenyl)acetyl]amino}-N-[(3S)-1-methyl-2-oxo-5-phenyl-2,3-dihydro-1H-1,4-benzodiazepin-3-yl]propanamide]
  Accumulation of EphA7 C-terminal fragment (CTF, band around 50 kDa) on Western blot, indicating inhibited cleavage of EphA7 by γ-secretase: CTF was accumulated

Source: patent US8530181B2, “Method of screening for compounds which affect the cleavage of EphA7 byγ-secretase” (Eisai R&D Management Co., Ltd., priority 2007, dated 2013)
